Results on one molecule are retold here after paper PMC9821308, “The Inhibitory Properties of a Novel, Selective LMTK3 Kinase Inhibitor” (International Journal of Molecular Sciences, 2023).

By Kd is commonly meant the concentration at which binding is half-saturated. The low end stands for a tighter complex, the high end for a looser complex.

Test [1] has as its target T1, LMTK3 (lemur tyrosine kinase 3) (Homo sapiens, UniProt Q96Q04).
T1 construct: LMTK3cat (LMTK3 kinase domain)
T1 sequence (Q96Q04 133-411 limits assumed): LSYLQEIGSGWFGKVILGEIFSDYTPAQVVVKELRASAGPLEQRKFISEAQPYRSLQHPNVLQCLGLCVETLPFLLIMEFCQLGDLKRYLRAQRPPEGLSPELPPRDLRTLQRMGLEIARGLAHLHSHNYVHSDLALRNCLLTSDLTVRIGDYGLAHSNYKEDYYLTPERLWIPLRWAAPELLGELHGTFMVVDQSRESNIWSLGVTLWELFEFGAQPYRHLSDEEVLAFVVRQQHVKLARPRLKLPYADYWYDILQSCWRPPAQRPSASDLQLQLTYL
The test is described as follows: microscale thermophoresis; also […] kinase assay on HSP27 (IC50 approximately […]). It counts as binding.

Another test has as its target MKNK1 (Homo sapiens, UniProt Q9BUB5). Briefly: KINOMEscan active site-directed competition binding at […]; also radioactive filter binding assay at […].
In a further test the target is MKNK2 (Homo sapiens, UniProt Q9HBH9). Described as above.
The target in a further test is T2, TRKA (Homo sapiens, UniProt P04629).
T2 construct: gene NTRK1
Briefly: KINOMEscan active site-directed competition binding at […] ([…]); also radioactive filter binding assay at […].

In a further test the target is PIM1 (Homo sapiens, UniProt P11309). The test is described as follows: KINOMEscan active site-directed competition binding at […]; also radioactive filter binding assay at […].
The next test concerns the target PDGFRA (Homo sapiens, UniProt P16234). The description is as above.

Molecules are shown by their SMILES.

As for `Clc1ccc(-c2cnc3sc(NCc4cccnc4)nn23)cc1` [C36], in test [1], binding was put at a Kd of 1870 ± 200 nM. Further, the “KINOMEscan active site-directed competition binding at 5 μM; also radioactive fi” value on MKNK1 is on record as “overlap of kinases targeted by C36 that have been identified via both assays (namely PIM1, TRKA, PDGFRA, MKNK1, MKNK2)”; on MKNK2 it was “overlap of kinases targeted by C36 that have been identified via both assays (namely PIM1, TRKA, PDGFRA, MKNK1, MKNK2)”; at PIM1 it was “overlap of kinases targeted by C36 that have been identified via both assays (namely PIM1, TRKA, PDGFRA, MKNK1, MKNK2)”; at PDGFRA, “overlap of kinases targeted by C36 that have been identified via both assays (namely PIM1, TRKA, PDGFRA, MKNK1, MKNK2)”. Also, the “KINOMEscan active site-directed competition binding at 5 μM (>90%); also radioac” value on TRKA is “overlap of kinases targeted by C36 that have been identified via both assays (namely PIM1, TRKA, PDGFRA, MKNK1, MKNK2)”.
